Tested on: T1, L-asparaginase (N-SMASP)
T1 construct: native enzyme purified from culture supernatant of chloramphenicol-selected colonies (ammonium sulfate, Sephadex G-100); single 17 kDa band on SDS-PAGE
Assay: Nessler ammonia release assay, Lineweaver-Burk
Type: biochemical, Stenotrophomonas maltophilia
Settings: 0.05 M Tris-HCl pH 8.6, 37 °C

NC(=O)C[C@H](N)C(=O)O [L-asparagine]
Km: 41.6 mM

Source: paper PMC11069494, “Production of highly cytotoxic and low immunogenic L-asparaginase from Stenotrophomonas maltophilia EMCC2297” (AMB Express, 2024)
